Measurements taken from patent EP0155486A1, “1,3,5-Trisubstituted 1,2,4-triazole derivatives, process for their preparation and medicinal preparations containing them” (priority 1984, dated 1985).
Where two headings read alike, the source gives them in different places.

How the values were obtained:
[1] = system: männlichen Ratten der Art Long Evans; experiment: animal or person; assay type: in vivo; conditions: for Prozentuale Hemmung bei einer peroralen Dosis von 3,12 mg/kg: peroral 3,12 mg/kg; for change in vivo at 6.25 mg/kg / change in vivo at 12.5 mg/kg: 504 h; for change in vivo at 6.25 mg/kg: read-out: Prozentuale Hemmung bei einer peroralen Dosis von 6,25 mg/kg; for Prozentuale Hemmung bei einer peroralen Dosis von 1,56 mg/kg: peroral 1,56 mg/kg; for ED50: read-out: Peroraler ED50-Wert in mg/kg an Ratten; for Therapeu-tischer Index LD50-Wert / ED50-Wert: ratio of peroral LD50 to peroral ED50, rats
Protocol: Die Untersuchung der therapeutischen Wirkung der erfindungsgemäßen 1,2,4-Triazolderivate wurde mittels des modifizierten Newbould-Prüfversuches (Brit. J. Pharmacol., 21 [1963], Seite 127) durchgeführt. Dazu wurde in die rechen Hinterfüße von männlichen Ratten der Art Long Evans mit Gewichten von 180 bis 250 g intraplantar […] abgetötetes Mycobacterium tuberculosis in einem Volumen von 0,1 ml injiziert. Nachfolgend wurden die Ratten pro betreffenden Tag mit einer Dosis der zu untersuchenden Verbindung insgesamt 16-mal während 3 Wochen behandelt. Die Änderung des Volumens der Fußschwellung wurde 21 Tage lang täglich mit einem Quecksilber-Plethysmometer vom Lence-Typ bestimmt. Vom 10-ten Tag an wurde das Volumen des linken Hinterfußes bestimmt. Die prozentuale Hemmung wurde im Verhältnis zu diesem Volumen aus der eintretenden Änderung in der Schwellung des rechten Hinterfußes berechnet.

Ratten = experiment: ulcerogenic side effect; assay type: in vivo
Protocol: Auch die geschwürbildende beziehungsweise ulcerogene Wirkung, eine der kritischsten Nebenwirkungen entzündungshemmender Mittel, betreffend erwiesen sich die erfindungsgemäßen 1,2,4-Triazolderivate als im Vergleich zu Handelspräparaten günstiger. So führten Einzeldosen von 15 mg/kg 1-(p-Chlorbenzoyl)-5-(methoxy)-2-(methyl)-indol-3-ylessig- säure {Indometacin} bei 100% der Ratten Geschwüre (Ulcus) herbei, während Einzeldosen von 1 000 mg/kg 1,5-Bis-[4'--(chlor)-phenyl]-3-[methylthio]-1,2,4-triazol (Verbindung des Beispieles 27) nur bei 10% der Tiere Geschwüre verursachten.

in vivo = conditions: rat, po, peroral, rats, read-out: Peroraler LD50-Wert in mg/kg an Ratten
[2] = 16 doses during 3 weeks, paw swelling, rats
[3] = po, peroral 12,5 mg/kg, 16 doses during 3 weeks, paw swelling, rats, read-out: Prozentuale Hemmung bei einer peroralen Dosis von 12,5 mg/kg
[4] = po, read-out: Prozentuale Hemmung bei einer peroralen Dosis von 12,5 mg/kg

## Clc1ccc(-c2nc(SCc3ccccn3)nn2-c2ccc(Cl)cc2)cc1 [Beispiel 4, 1,5-Bis-[4'-(chlor)-phenyl]-3-[pyrid-2"-ylmethyl-thio]-1,2,4-triazol]
[1]; [2]
  Prozentuale Hemmung bei einer peroralen Dosis von 3,12 mg/kg: -38%
[1]; po
  change in vivo at 6.25 mg/kg: -40%

## CSc1nc(-c2ccccc2SC)n(-c2ccc(Cl)cc2)n1 [Beispiel 14, 1-[4'-(Chlor)-phenyl]-5-[2"-(methylthio)-phenyl]-3--[methylthio]-1,2,4-triazol]
[1]; [2]
  Prozentuale Hemmung bei einer peroralen Dosis von 3,12 mg/kg: -5%
[1]; [3]
  change in vivo at 12.5 mg/kg: -51%

## CSc1nc(-c2ccc(Cl)cc2)n(-c2ccc(Cl)cc2)n1 [Beispiel 27, 1,5-Bis-[4'-(chlor)-phenyl]-3--[methylthio]-1,2,4-triazol]
[1]; [2]
  Prozentuale Hemmung bei einer peroralen Dosis von 1,56 mg/kg: -17%
  Prozentuale Hemmung bei einer peroralen Dosis von 3,12 mg/kg: -39%
[1]; po
  change in vivo at 6.25 mg/kg: -55%
  ED50: 7.4 mg/kg
[1]; [4]
  change in vivo at 12.5 mg/kg: -67%
Ratten; single dose 1 000 mg/kg, share of animals with ulcers
  Tiere mit Geschwüren: 10%

## CSc1nc(-c2cccs2)n(-c2ccc(Cl)cc2)n1 [Beispiel 30, 1-[4'-(Chlor)-phenyl]-5-[thien-2"-yl]-3-[methylthio]--1,2,4-triazol]
[1]; [3]
  change in vivo at 12.5 mg/kg: -44%

## CSc1nc(-c2ccc(F)cc2)n(-c2ccc(F)cc2)n1 [Beispiel 41, 1-[4'-(Fluor)-phenyl]-5-[4"-(fluor)-phenyl]-3--[methylthio]-1,2,4-triazol]
[1]; [2]
  Prozentuale Hemmung bei einer peroralen Dosis von 3,12 mg/kg: -42%
[1]; po
  change in vivo at 6.25 mg/kg: -57%

## CSc1nc(-c2ccc(Cl)cc2)n(-c2cccc(C(F)(F)F)c2)n1 [Beispiel 42, 1-[3'-(Trifluormethyl)-phenyl]-5-[4"-(Chlor)-phenyl]--3-[methylthio]-1,2,4-triazol]
[1]; po
  change in vivo at 6.25 mg/kg: -48%

## CSc1nc(-c2ccc(F)cc2)n(-c2ccc(Cl)cc2)n1 [Beispiel 44, 1-[4'-(Chlor)-phenyl]-5-[4"-(fluor)-phenyl]-3--[methylthio]-1,2,4-triazol]
[1]; [2]
  Prozentuale Hemmung bei einer peroralen Dosis von 1,56 mg/kg: -36%
  Prozentuale Hemmung bei einer peroralen Dosis von 3,12 mg/kg: -64%
[1]; po
  change in vivo at 6.25 mg/kg: -53%
  ED50: 2.1 mg/kg
[1]
  Therapeu-tischer Index LD50-Wert / ED50-Wert: 81,0
In vivo
  LD50: 170 mg/kg

## CSc1nc(-c2ccc(C(F)(F)F)cc2)n(-c2ccc(F)cc2)n1 [Beispiel 45, 1-[4'-(Fluor)-phenyl]-5-[4"-(trifluormethyl)-phenyl]--3-[methylthio]-1,2,4-triazol]
[1]; po
  change in vivo at 6.25 mg/kg: -25%
[1]; [3]
  change in vivo at 12.5 mg/kg: -48%

## CSc1nc(-c2ccc(F)cc2)n(-c2cccc(C(F)(F)F)c2)n1 [Beispiel 47, 1-[3'-(Trifluormethyl)-phenyl]-5-[4"-(fluor)-phenyl]--3-[methylthio]-1,2,4-triazol]
[1]; po
  change in vivo at 6.25 mg/kg: -22%
[1]; [3]
  change in vivo at 12.5 mg/kg: -53%

## CSc1nc(-c2ccc(F)cc2)n(-c2cccc(Cl)c2)n1 [Beispiel 53, 1-[3'-(Chlor)-phenyl]-5-[4"-(fluor)-phenyl]-3--[methylthio]-1,2,4-triazol]
[1]; [3]
  change in vivo at 12.5 mg/kg: -51%

## CSc1nc(-c2ccc(Cl)cc2)n(-c2ccc(Br)cc2)n1 [Beispiel 54, 1-[4'-(Brom)-phenyl]-5-[4"-(chlor)-phenyl]-3--[methylthio]-1,2,4-triazol]
[1]; po
  change in vivo at 6.25 mg/kg: -28%
[1]; [3]
  change in vivo at 12.5 mg/kg: -56%

## CSc1nc(-c2ccc(Cl)cc2)n(-c2ccc(F)cc2)n1 [Beispiel 55, 1-[4'-(Fluor)-phenyl]-5-[4"-(chlor)-phenyl]-3--[methylthio]-1,2,4-triazol]
[1]; [2]
  Prozentuale Hemmung bei einer peroralen Dosis von 1,56 mg/kg: -12%
  Prozentuale Hemmung bei einer peroralen Dosis von 3,12 mg/kg: -26%
[1]; po
  change in vivo at 6.25 mg/kg: -68%
  ED50: 6.8 mg/kg
[1]
  Therapeu-tischer Index LD50-Wert / ED50-Wert: 55,9
In vivo
  LD50: 380 mg/kg

## COc1ccc2c(c1)c(CC(=O)O)c(C)n2C(=O)c1ccc(Cl)cc1 [Indometacin, 1-(p-Chlorbenzoyl)-5-(methoxy)-2-(methyl)-indol-3-ylessig-säure, reference compound]
Ratten; single dose 15 mg/kg, share of rats with ulcers
  Ratten mit Geschwüren (Ulcus): 100%

## CCCCC1C(=O)N(c2ccccc2)N(c2ccccc2)C1=O [Vergleichs-substanz A, 4-(Butyl)-1,2-di-(phenyl)-pyrazolidin-3,5-dion, reference compound]
[1]; [3]
  change in vivo at 12.5 mg/kg: -7%

## COc1ccc2cc([C@H](C)C(=O)O)ccc2c1 [Vergleichs-substanz B, (+)-2-[6'--(Methoxy)-naphth-2'-yl]-propionsäure, reference compound]
[1]; po
  ED50: 12.5 mg/kg
[1]; [4]
  change in vivo at 10 mg/kg: -34%
